Activity calls are given as the source filed them. No cut-off for these calls is given here.
Key:
[1] = test system: L3.6pl; experiment: Effect on human L3.6pI cells assessed as rescue of Ant44-induced toxicity at 30 uM measured after 24 hrs; format: functional
[2] = Decrease in intracellular polyamine level in human L3.6pI cells assessed as Spd/Spm molar ratio at 30 uM measured after 24 hrs by HPLC analysis (reference value: 1.9); format: functional, L3.6pl
[3] = Decrease in intracellular polyamine level in human L3.6pI cells assessed as total polyamine level at 30 uM measured after 24 hrs in presence of DFMO by HPLC analysis (reference value: 20.7 nmol/mg); format: functional, L3.6pl
[4] = test system: L3.6pl; experiment: Cytotoxicity against human L3.6pl cells assessed as reduction in cell growth measured after 72 hrs by CellTiter96 one aqueous solution assay; format: cell-based; details: for IC50: Homo sapiens, L3.6pl; for MTC: human, l3.6pl, time 72 hrs
[5] = (§1) Cytotoxicity against murine L1210 cells assessed as reduction in cell growth measured after 72 hrs by CellTiter96 one aqueous solution assay; format: cell-based, Mus musculus; details: mouse, L1210 cells; time 72 hrs; read-out: MTC
[6] = test system: L1210; experiment: as §1; format: cell-based, Mus musculus; details: Mus musculus, L1210, 72 h
[7] = Decrease in intracellular polyamine level in human L3.6pI cells assessed as total polyamine level at 30 uM measured after 24 hrs by HPLC analysis (reference value: 35.9 nmol/mg); format: functional, L3.6pl
[8] = Decrease in intracellular polyamine level in human L3.6pI cells assessed as Spd/Spm molar ratio at 30 uM measured after 24 hrs in presence of DFMO by HPLC analysis (reference value: 0.2); format: functional, L3.6pl
[9] = Decrease in intracellular polyamine level in human L3.6pI cells assessed as total polyamine level at 30 uM measured after 24 hrs in presence of DFMO and Spd by HPLC analysis (reference value: 23.5 nmol/mg); format: functional, L3.6pl
[10] = test system: L3.6pl; experiment: Inhibition of spermidine uptake in human L3.6pI cells assessed as effect on cell growth measured after 72 hrs in presence of DFMO by CellTiter96 aqueous one solution assay; format: functional, cell-based
[11] = Decrease in intracellular polyamine level in human L3.6pI cells assessed as Spd/Spm molar ratio at 30 uM measured after 24 hrs in presence of DFMO and Spd by HPLC analysis (reference value: 0.4); format: functional, L3.6pl
[12] = Inhibition of polyamine transport system in human L3.6pI cells assessed as reduction in [3H] spermidine uptake by Lineweaver-Burk double reciprocal plot analysis; format: cell-based; details: l3.6pl
[13] = Inhibition of polyamine transport system in murine L1210 cells assessed as reduction in [3H] spermidine uptake by Lineweaver-Burk double reciprocal plot analysis; format: cell-based, Mus musculus
[14] = Inhibition of polyamine transport system in human L3.6pI cells assessed as reduction in [3H] putrescine uptake by Lineweaver-Burk double reciprocal plot analysis; format: cell-based; details: l3.6pl
[15] = Inhibition of polyamine transport system in human L3.6pI cells assessed as reduction in [3H] spermine uptake by Lineweaver-Burk double reciprocal plot analysis; format: cell-based; details: l3.6pl
[16] = test system: L3.6pl; experiment: Inhibition of [3H]spermidine uptake in human L3.6pI cells at 3 to 10 uM measured after 15 mins by scintillation counter method; format: functional, cell-based; details: dose 3-10 µM
[17] = test system: L3.6pl; experiment: Inhibition of [3H]spermine uptake in human L3.6pI cells at 3 to 10 uM measured after 15 mins by scintillation counter method; format: functional, cell-based; details: dose 3-10 µM
[18] = test system: L3.6pl; experiment: Inhibition of [3H]putresine uptake in human L3.6pI cells at up to 30 uM measured after 15 mins by scintillation counter method; format: functional, cell-based; details: dose microM <=30, time 15.0 min

| SMILES | Activity [1] | Ratio [2] | Activity [3] | IC50 [4] | MTC [4] | MCC at 72 h [5] | IC50 [6] | Activity [7] | Ratio [8] | Activity [9] | Activity [10] | Ratio [11] | Ki [12] | Ki [13] | Ki [14] | Ki [15] | inhibition [16] | inhibition [17] | inhibition [18] |
| --- | --- | --- | --- | --- | --- | --- | --- | --- | --- | --- | --- | --- | --- | --- | --- | --- | --- | --- | --- |
| Cl.Cl.Cl.Cl.Cl.NCCCCNCCCCN1CCNCCNCC1 | Active | 1.6 | 17 nmol/mg | 1170 µM | 500 µM | > 100000 nM | > 100 µM | 36.4 nmol/mg | 0.1 | 20.8 nmol/mg | Active | 0.2 | 3.3 µM | 1.9 µM | 11.6 µM | 1.3 µM | Active | Active | inactive |
| C1CNCCCNCCCNC1 |  |  |  | 129 µM | 50 µM |  |  |  |  |  |  |  |  |  |  |  |  |  |  |
| Cl.Cl.Cl.Cl.Cl.NCCCCNCCCCN1CCCNCCCNCCC1 |  |  |  | 368 µM | 100 µM | 1000 nM | > 100 µM |  |  |  | Active |  | 3.7 µM | 7.1 µM |  |  |  |  |  |
| C1CNCCNCCN1 |  |  |  | 980 µM | 250 µM |  |  |  |  |  |  |  |  |  |  |  |  |  |  |
| CNCCCCNCCCCNCc1cc(CNCCCCNCCCCNC)cc(CNCCCCNCCCCNC)c1 |  |  |  | 50 µM | 3 µM |  |  |  |  |  |  |  | 2.6 µM |  | 17.4 µM | 0.9 µM | Active | Active |  |
